The values that follow come from patent US9365572B2, “PI3K and/or mTOR inhibitor” (XUANZHU PHARMA CO., LTD., priority 2012, dated 2016).

What all share (assay): Kinase selectivity, Mobility shift assay
Holding throughout (assay type): biochemical

The target in one assay is PKD1 (Homo sapiens (Human), UniProt Q15139). The method, then:
(§1) Object: In this assay, the inhibitory activity of the test substance on the kinases listed in Table 3 was determined, and therefore the selectivity of the present compound was determined.
(§2) Except for the BRAF V600E kinase in Table 3, the Mobility shift assay was used for other kinases.
(§3) 1. Preparation of Agents:
(§4) • 1.1 1-fold kinase buffer without MnCl2: 50 mM HEPES, pH 7.5, 0.0015% Brij-35, 10 mM MgCl2, 2 mM DTT. • 1.2 1-fold kinase buffer with MnCl2: 50 mM HEPES, pH 7.5, 0.0015% Brij-35, 10 mM MgCl2, 10 mM MnCl2, 2 mM DTT. • 1.3 Termination solution: 100 mM HEPES, pH 7.5, 0.0015% Brij-35, 0.2% Coating Reagent#3, 50 mM EDTA. • 1.4 2.5-fold kinase solution: The kinase was added to the 1-fold kinase buffer to form a 2.5-fold kinase solution. • 1.5 2.5-fold substrate solution: FAM fluorescence-labelled polypeptide and ATP were added to the 1-fold kinase buffer to form a 2.5-fold substrate solution. 2. Preparation of 5-fold compound
(§5) The final test concentration of the compound was 10 μM at maximum. Firstly, a 50-fold concentration (i.e. 500 μM) was prepared with 100% DMSO. The compound was diluted with 100% DMSO by 5 folds at 5 concentrations (successively 500 μM, 100 μM, 20 μM, 4 μM, and 0.8 μM). After diluting with 1-fold kinase buffer by 10 folds, 5 μl of the samples were transferred to a 384-well reaction plate. Two negative control wells and two positive control wells were set at each line respectively. Replication was made in a 96-well plate in five concentrations of 5-fold compound. 10% DMSO was added to the positive control well, and 5 μl of EDTA (250 mM) was added to the negative control well.
(§6) • 3.1 To the 384-well reaction plate was added 5-fold compound dissolved in 10% DMSO at 5 μl/well. • 3.2 To the 384-well reaction plate was added 2.5-fold kinase solution at 10 μl/well. The plate was incubated at room temperature for 10 mins. • 3.3 To the 384-well reaction plate was added 2.5-fold substrate solution at 10 μl/well. The plate was incubated at 28° C. for a certain period. • 3.4 25 μl termination solution was added to terminate the reaction. The conversion was read from Caliper. 4. Inhibition rate calculation Inhibition rate (%)=(maximum−sample value)/(maximum−minimum)×100 • wherein: • maximum refers to the conversion at the DMSO control well, • minimum refers to the conversion at the control well without kinase. Lanthascreen Analysis Method for the BRAF V600E Kinase 1. Preparation of Agents: • 1.1 2-fold kinase solution: using 1-fold kinase buffer to prepare 2-fold kinase solution, with a final concentration of 0.35 nM of BRAFV600E; • 1.2 4-fold substrate solution: using 1-fold kinase buffer to prepare 4-fold substrate solution, with a final substrate solution concentration of 0.2 μM of Fluorescein-MAP2K1 and 1.5 μM of ATP. 2. Preparation of 4-fold compound • The final test concentration of the compound was 10 μM at maximum. Firstly, a 100-fold concentration (i.e. 1000 μM) was prepared with 100% DMSO. The compound was diluted with 100% DMSO by 5 folds at 5 concentrations. The compound series was identical to that in the Mobility Shift Assay. After diluting with 1-fold kinase buffer by 25 folds, the resulting samples were shaked and mixed evenly on a plate-shaker for 10 mins. 3. Procedure • 3.1 To the 384-well reaction plate was added 4-fold compound dissolved in 10% DMSO at 2.5 µl/well; • 3.2 To the 384-well reaction plate was added 2-fold kinase solution at 5 μl/well, and to the negative control wells were added 1-fold kinase buffer. The samples were shaked, mixed evenly, and kept standing at room temperature. • 3.3 To the 384-well reaction plate was added 4-fold substrate solution at 2.5 μl/well. The plate was reacted, shaked, mixed evenly and incubated at room temperature for one hour; • 3.4 Reaction result detection: 2-fold detection solution was prepared, with a final concentration of 2 nM of Antibody and 10 mM of EDTA. 10 μl of the detection solution was transferred to the 384-well plate to terminate the reaction. […]

In the next assay the target is LYNa (Homo sapiens (Human), UniProt P07948). Here is the method: as §1, §2, §3, §4, §5, §6
A further assay concerns the target CDK2 (Homo sapiens (Human), UniProt P24941). The method, then:
as §1, §2, §3, §4, §5, §6

The target in the next assay is IKKB (Homo sapiens (Human), UniProt O14920). The method, then: as §1, §2, §3, §4, §5, §6
A further assay has as its target ABL (Homo sapiens (Human), UniProt P00519). Here is the method:
as §1, §2, §3, §4, §5, §6

The target in the next assay is CHK1 (Homo sapiens (Human), UniProt O14757). The method, then:
as §1, §2, §3, §4, §5, §6

Another assay deals with CMET (Homo sapiens (Human), UniProt P08581). Here is the method: as §1, §2, §3, §4, §5, §6
In the next assay the target is ALK (Homo sapiens (Human), UniProt Q9UM73). Here is the method:
as §1, §2, §3, §4, §5, §6

For another assay, the target named is AKT1 (Homo sapiens (Human), UniProt P31749). Here is the method: as §1, §2, §3, §4, §5, §6
The next assay deals with MARK1 (Homo sapiens (Human), UniProt Q9P0L2). Here is the method: as §1, §2, §3, §4, §5, §6
The target in the next assay is GSK3β (Homo sapiens (Human), UniProt P49841). The method, then: as §1, §2, §3, §4, §5, §6
The target of another assay is CAMK2a (Homo sapiens (Human), UniProt Q9UQM7). The method, then:
as §1, §2, §3, §4, §5, §6

For the next assay, the target named is FGFR1 (Homo sapiens (Human), UniProt P11362). The method, then: as §1, §2, §3, §4, §5, §6
The next assay deals with PDGFRb (Homo sapiens (Human), UniProt P09619). The method, then:
as §1, §2, §3, §4, §5, §6

The target in a further assay is EGFR (Homo sapiens (Human), UniProt P00533). The method, then: as §1, §2, §3, §4, §5, §6
The target in another assay is SRC (Homo sapiens (Human), UniProt P12931). The method, then: as §1, §2, §3, §4, §5, §6
A further assay addresses IGF1R (Homo sapiens (Human), UniProt P08069). Here is the method: as §1, §2, §3, §4, §5, §6
The next assay has as its target PIM1 (Homo sapiens (Human), UniProt P11309). Here is the method:
as §1, §2, §3, §4, §5, §6

A further assay deals with MAPKAPK2 (Homo sapiens (Human), UniProt P49137). Here is the method:
as §1, §2, §3, §4, §5, §6

ABL, sequence (P00519 whole entry, species assumed): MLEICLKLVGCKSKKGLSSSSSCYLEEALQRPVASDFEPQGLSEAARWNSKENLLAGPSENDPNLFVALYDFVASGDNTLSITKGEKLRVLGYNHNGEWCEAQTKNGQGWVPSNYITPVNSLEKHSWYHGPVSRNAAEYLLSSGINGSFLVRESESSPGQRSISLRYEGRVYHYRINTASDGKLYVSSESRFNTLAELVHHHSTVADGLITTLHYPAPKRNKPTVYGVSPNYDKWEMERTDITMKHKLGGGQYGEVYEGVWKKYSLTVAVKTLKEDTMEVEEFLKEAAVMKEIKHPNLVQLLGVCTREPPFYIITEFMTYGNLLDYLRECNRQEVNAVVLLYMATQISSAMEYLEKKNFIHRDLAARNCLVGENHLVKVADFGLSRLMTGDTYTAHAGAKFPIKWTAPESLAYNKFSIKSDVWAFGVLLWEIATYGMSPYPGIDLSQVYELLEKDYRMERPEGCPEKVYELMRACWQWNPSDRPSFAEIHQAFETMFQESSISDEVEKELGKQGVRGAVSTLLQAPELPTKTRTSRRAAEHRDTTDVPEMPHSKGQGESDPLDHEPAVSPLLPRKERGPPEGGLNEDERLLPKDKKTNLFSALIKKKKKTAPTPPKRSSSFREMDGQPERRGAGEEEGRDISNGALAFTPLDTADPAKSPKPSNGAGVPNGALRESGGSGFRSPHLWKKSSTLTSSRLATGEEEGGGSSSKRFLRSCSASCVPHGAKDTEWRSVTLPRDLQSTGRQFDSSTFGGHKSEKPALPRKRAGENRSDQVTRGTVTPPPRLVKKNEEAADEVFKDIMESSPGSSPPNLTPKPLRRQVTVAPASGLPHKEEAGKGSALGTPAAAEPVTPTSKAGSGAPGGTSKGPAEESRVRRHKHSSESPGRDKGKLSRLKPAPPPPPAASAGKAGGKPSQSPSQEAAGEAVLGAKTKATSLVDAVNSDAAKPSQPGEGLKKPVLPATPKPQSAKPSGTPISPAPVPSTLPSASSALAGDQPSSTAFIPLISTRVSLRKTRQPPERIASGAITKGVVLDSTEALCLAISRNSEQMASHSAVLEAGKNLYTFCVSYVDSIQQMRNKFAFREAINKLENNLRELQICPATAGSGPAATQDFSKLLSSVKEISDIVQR
CMET, sequence (P08581 25-1390): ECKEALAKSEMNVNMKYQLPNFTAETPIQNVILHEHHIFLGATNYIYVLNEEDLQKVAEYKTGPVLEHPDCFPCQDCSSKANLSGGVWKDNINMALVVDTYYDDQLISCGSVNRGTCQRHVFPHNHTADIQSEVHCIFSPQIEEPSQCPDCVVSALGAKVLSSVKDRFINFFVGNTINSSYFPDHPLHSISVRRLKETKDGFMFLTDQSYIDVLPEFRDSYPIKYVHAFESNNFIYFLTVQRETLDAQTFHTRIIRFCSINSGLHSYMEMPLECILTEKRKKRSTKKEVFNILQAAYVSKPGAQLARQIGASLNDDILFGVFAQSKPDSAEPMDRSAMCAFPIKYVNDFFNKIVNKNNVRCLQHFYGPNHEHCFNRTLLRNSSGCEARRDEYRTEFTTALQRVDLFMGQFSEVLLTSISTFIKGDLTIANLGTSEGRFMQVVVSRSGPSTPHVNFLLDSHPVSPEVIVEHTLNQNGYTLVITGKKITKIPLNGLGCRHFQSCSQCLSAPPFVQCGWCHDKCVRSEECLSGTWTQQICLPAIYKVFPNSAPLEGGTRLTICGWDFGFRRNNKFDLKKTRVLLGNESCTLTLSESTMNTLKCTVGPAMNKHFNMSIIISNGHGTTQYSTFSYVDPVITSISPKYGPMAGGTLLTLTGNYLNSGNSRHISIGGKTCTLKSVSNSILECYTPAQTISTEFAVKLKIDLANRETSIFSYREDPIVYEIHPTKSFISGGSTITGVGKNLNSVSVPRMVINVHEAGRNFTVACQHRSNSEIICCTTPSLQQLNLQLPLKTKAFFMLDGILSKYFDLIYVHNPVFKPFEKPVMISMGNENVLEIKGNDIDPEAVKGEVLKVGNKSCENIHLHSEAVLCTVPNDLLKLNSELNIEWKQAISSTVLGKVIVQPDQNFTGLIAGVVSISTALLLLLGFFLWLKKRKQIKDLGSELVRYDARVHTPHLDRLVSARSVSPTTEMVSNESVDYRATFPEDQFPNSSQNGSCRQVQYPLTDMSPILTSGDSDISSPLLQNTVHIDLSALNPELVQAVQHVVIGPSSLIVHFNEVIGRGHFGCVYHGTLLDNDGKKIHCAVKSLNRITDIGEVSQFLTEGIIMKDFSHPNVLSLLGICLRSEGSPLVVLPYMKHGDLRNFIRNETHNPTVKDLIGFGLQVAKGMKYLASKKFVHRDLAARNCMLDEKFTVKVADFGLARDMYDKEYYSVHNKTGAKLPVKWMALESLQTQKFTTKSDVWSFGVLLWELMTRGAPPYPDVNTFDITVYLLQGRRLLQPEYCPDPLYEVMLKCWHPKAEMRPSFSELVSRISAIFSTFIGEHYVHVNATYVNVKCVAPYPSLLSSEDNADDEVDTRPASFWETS
MARK1, sequence (Q9P0L2 whole entry, species assumed): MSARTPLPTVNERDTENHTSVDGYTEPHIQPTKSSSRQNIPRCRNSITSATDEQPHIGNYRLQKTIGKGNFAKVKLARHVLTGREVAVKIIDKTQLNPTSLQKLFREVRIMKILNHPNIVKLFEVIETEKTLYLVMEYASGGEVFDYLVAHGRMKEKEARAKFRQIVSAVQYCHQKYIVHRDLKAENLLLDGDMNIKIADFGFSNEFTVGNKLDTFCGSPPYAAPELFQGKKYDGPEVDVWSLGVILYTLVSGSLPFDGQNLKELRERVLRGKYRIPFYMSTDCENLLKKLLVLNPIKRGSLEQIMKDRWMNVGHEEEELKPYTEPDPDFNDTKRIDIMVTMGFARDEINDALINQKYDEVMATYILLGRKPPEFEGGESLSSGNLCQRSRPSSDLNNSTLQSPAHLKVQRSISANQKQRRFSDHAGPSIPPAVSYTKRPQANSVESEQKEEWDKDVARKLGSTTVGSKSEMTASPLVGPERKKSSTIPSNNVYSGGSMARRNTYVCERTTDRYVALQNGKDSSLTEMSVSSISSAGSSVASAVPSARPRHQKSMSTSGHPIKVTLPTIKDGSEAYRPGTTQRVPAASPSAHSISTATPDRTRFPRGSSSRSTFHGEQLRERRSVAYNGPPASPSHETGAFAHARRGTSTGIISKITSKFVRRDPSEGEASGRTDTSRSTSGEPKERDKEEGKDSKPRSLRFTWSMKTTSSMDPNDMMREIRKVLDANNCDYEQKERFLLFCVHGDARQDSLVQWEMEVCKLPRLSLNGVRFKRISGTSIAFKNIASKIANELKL
ALK, sequence (Q9UM73 19-1620, species assumed): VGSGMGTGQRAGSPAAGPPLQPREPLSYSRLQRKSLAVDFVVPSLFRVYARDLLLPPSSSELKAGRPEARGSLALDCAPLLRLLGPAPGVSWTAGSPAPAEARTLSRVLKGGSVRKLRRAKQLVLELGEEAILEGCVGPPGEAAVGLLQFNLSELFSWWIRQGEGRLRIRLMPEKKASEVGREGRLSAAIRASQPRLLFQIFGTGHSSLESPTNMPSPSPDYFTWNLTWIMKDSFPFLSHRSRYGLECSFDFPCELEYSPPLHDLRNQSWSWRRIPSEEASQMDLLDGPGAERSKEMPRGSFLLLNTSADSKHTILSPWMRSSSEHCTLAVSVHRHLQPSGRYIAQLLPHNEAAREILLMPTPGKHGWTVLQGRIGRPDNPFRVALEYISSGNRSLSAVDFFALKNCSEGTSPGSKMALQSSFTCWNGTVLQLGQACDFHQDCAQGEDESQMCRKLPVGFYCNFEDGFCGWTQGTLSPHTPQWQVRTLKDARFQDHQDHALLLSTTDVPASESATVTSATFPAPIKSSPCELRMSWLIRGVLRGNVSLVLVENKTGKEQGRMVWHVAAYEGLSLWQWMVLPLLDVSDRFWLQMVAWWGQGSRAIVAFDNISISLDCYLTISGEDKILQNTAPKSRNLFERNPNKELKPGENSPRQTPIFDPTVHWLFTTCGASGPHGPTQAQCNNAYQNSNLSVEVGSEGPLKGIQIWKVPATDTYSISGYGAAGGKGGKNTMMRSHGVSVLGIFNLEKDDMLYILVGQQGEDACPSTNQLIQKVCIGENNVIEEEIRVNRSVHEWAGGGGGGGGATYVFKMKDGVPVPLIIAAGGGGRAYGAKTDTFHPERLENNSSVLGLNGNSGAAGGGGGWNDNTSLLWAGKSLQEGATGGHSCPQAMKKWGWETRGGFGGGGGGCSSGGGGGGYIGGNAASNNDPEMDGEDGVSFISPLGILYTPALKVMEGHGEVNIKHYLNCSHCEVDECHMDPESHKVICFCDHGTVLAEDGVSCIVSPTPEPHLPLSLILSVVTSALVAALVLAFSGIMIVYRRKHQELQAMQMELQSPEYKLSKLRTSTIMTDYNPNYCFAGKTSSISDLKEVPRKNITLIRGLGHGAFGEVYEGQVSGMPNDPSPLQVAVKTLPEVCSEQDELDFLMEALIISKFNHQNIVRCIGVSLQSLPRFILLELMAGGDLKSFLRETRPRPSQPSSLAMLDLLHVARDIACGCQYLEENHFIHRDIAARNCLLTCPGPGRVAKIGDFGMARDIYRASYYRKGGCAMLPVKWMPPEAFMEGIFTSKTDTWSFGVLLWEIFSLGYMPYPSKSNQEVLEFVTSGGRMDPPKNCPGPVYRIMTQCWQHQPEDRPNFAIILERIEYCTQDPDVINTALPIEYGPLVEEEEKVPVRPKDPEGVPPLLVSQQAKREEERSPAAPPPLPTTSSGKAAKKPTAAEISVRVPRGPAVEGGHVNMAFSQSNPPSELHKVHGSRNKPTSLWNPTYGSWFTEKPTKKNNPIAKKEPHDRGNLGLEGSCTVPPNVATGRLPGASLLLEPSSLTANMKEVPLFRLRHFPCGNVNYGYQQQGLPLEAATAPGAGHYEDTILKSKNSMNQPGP

Turning to `Nc1ccc(-c2ccc3ncc4c(=O)[nH]c(=O)n(-c5cccc(C(F)(F)F)c5)c4c3n2)cn1` [Compound 5, 9-(6-aminopyridin-3-yl)-1-(3-(trifluoromethyl)phenyl)pyrimido[5,4-c][1,5]naphthyridine-2,4(1H,3H)-dione], the IC50 (in general, the point on the concentration scale where inhibition reaches its midpoint) was 2410 nM on PKD1; 1370 nM on LYNa; > 10000 nM on CDK2; > 10000 nM on IKKB; > 10000 nM on ABL; > 10000 nM at CHK1. Further, the IC50 was > 10000 nM on CMET; 1170 nM on ALK; > 10000 nM on AKT1; > 10000 nM on MARK1; > 10000 nM at GSK3β; > 10000 nM on CAMK2a. The IC50 at FGFR1 is > 10000 nM; at PDGFRb, > 10000 nM; on EGFR it was > 10000 nM; at SRC, 842 nM; at IGF1R it was > 10000 nM; on PIM1, > 10000 nM. The IC50 at MAPKAPK2 was > 10000 nM.
